Measurements as given in publication PMC8198038, “In Vitro Evaluation of Antiproliferative Properties of Novel Organotin(IV) Carboxylate Compounds with Propanoic Acid Derivatives on a Panel of Human Cancer Cell Lines” (Molecules, 2021).

Columns and labels:
[1] = test system: HT-29 (human colorectal adenocarcinoma) cells; experiment: MTT assay, HT-29 cells; type: cell-based; details: MTT assay, 48 h incubation; read-out: IC50 (mean ± SD), HT-29, MTT
Procedure: (§1) The cell proliferations of ligand precursors and organotin(IV) compounds were evaluated with the aid of MTT (3-(4,5-dimethylthiazol-2-yl)-2,5-12 diphenyltetrazolium bromide) and CV (crystal violet) assays toward prostate (PC-3), colon (HT-29), breast (MCF-7) and hepatic (HepG2) cancer cell lines, and normal mouse embryonic fibroblast cells (NIH 3T3). The cells were cultivated in T75 flasks containing 10 mL of complete medium and kept at 37 °C and 5% CO2 […]. The nutrient medium was RPMI-1640 (PAA Laboratories) supplemented with 10% foetal bovine serum, L-glutamine, and penicillin/streptomycin (Sigma). Afterward, 5.000 cells of PC-3 and MCF-7 and 1.500 cells of HT-29 and HepG2 were transferred into 96 well-plates and used for MTT and CV assays. For microscopy investigations as well as FACS measurements (except for ROS/RNS measurements), MCF-7 cells were seeded overnight in 6-well plates (150,000 cells/well) in […] of complete medium. […] In all assays, control cells were untreated MCF-7 cells incubated for the same time period as treated cells and treated with appropriate reagents in various assays. BD FACS Aria III was used for flow cytometry experiments and results were analysed using BD FACSDiva software (BD Biosciences, Heidelberg, Germany) and Cyflogic (V 1.2.1, CyFlo Ltd., Turku, Finland). A fluorescence microscope Invitrogen EVOS FL 2 Auto 2 Cell Imaging System was used for visualization of the cells as well as for detection of fluorescence in the cells.
(§2) Ligands HL1‒HL3, organotin(IV) compounds, and cisplatin were investigated in 9 different concentrations (100, 50, 10, 5, 1, 0.5, 0.1, 0.05, 0.01 μM). Using the complete medium, each stock solution of the test compounds (20 mM in DMSO) was diluted to obtain the working solution. The final concentration of DMSO never overstepped 0.5%, which is non-toxic to the cells. Three technical replicates were performed for each concentration. The treated cells were incubated for 48 h at 37 °C under 5% CO2 and the viability of the cells was determined using MTT and CV assays according to the literature procedure. The IC50 values, defined as 50% inhibitory concentration, were calculated with a four-parameter logistic function and presented in a mean. All experiments were performed in triplicate.

[2] = test system: HepG2 (hepatocellular cancer) cells; experiment: MTT assay, HepG2 cells; type: cell-based, human; details: MTT assay, 48 h incubation; read-out: IC50 (mean ± SD), HepG2, MTT
Procedure: as §1, §2

[3] = test system: NIH3T3 (normal mouse embryonic fibroblast) cells; experiment: MTT assay, NIH3T3 cells; type: cell-based; details: MTT assay, 48 h incubation, normal cells; read-out: IC50 (mean ± SD), NIH3T3, MTT
Procedure: as §1, §2

[4] = test system: PC-3 (human prostate cancer) cells; experiment: CV (crystal violet) assay, PC-3 cells; type: cell-based; details: CV assay, 48 h incubation; read-out: IC50 (mean ± SD), PC-3, CV
Procedure: as §1, §2

[5] = test system: HT-29 (human colorectal adenocarcinoma) cells; experiment: CV (crystal violet) assay, HT-29 cells; type: cell-based; details: CV assay, 48 h incubation; read-out: IC50 (mean ± SD), HT-29, CV
Procedure: as §1, §2

[6] = test system: MCF-7 (breast cancer) cells; experiment: CV (crystal violet) assay, MCF-7 cells; type: cell-based, human; details: for IC50: CV assay, 48 h incubation, read-out: IC50 (mean ± SD), MCF-7, CV
Procedure: as §1, §2

MCF-7 cells [7] = experiment: Tin and platinum uptake by ICP-MS; type: cell-based, human; details: 24 h, at IC50 (CV assay): cisplatin 15.83 µM, Ph3SnL1 0.218 µM
Procedure: The cellular uptake features of metal-based cytotoxic drugs strongly impact the underlying anticancer performance. Intracellular tin and platinum uptake in MCF-7 cells has been investigated with the aid of inductively coupled plasma mass spectrometry (ICP-MS) analysis. The treatment of cells with Ph3SnL1 and cisplatin for 24 h in concentrations corresponding to their IC50 values, as obtained by the CV assay, was performed.
The tin and platinum uptake analysis was performed on MCF-7 cells with the aid of inductively coupled plasma mass spectrometry (ICP-MS). The cells were seeded in T25 flasks and allowed to grow. After 24 h, the exponentially growing cells were treated with 10 mL of Ph3SnL1 and cisplatin in concentrations corresponding to their IC50 values for 24 h, and thereafter trypsinised and collected by centrifugation at 1200 rpm for 8 min. Using 5 mL of ice-cold PBS the cells were washed and the metal uptake concentration in prepared samples was determined according to the previously described procedure. A Thermo Scientific iCAP Qc ICP-MS (Thermo Scientific, Bremen, Germany) instrument using the supplied autotune protocols and operational software Qtegra was employed for metal uptake determination. The measurements were performed on isotopes ^119Sn, ^120Sn, ^195Pt, and ^198Pt and the concentrations of metals were expressed as ppb (µg/L).

MCF-7 cells [8] = experiment: Activation of caspases (apostat, flow cytometry); type: cell-based, human
From the text: The activation of caspase is closely linked to cell apoptosis, the controlled cell death, via the mitochondrial pathway or cell death receptor [23, 24]. […] Due to this, it can be concluded that cell death is accomplished through caspase-independent apoptosis. Moreover, as MCF-7 cell line is caspase-3 deficient, this was an anticipated result. Besides, the accomplishment of apoptosis induced with Ph3SnL1 in MCF-7 cells (confirmed with AO and DAPI assays) was not disturbed as this type of cell death may be activated through other death signals not involving caspase activation.
The cells were resuspended in 1 mL of PBS and analysed with flow cytometry.

MCF-7 cells [9] = experiment: Autophagy analysis (AO, flow cytometry); type: cell-based, human; details: 48 h, IC50 concentration
Procedure: Thereafter, the medium was collected into 15 mL Falcon tubes, while the cells were washed with 1 mL of PBS. The cells were detached using […] of trypsin. The deactivation of trypsination was performed with the formerly collected medium, while for the untreated cells, 1 mL of complete medium was added, and the cells were collected by the pipette tip harvesting technique from each well into a new Falcon tube, which then was centrifuged for 3 min at 1000 rpm. The supernatant was discarded, and the cells were washed with 1 mL of PBS, centrifuged for 3 min at 1000 rpm and then the supernatant was discarded. Afterwards, 500 μL of the acridine orange (AO) working solution was used to stain the cells which then were incubated for 30 min at 37 °C under 5% CO2. The deactivation of the staining process was performed by adding 1 mL of PBS, and after centrifugation for 3 min at 1000 rpm, the supernatant was discarded. The cells were resuspended in 1 mL of PBS and analysed by flow cytometry.

SMILES: O=C(CCc1nc(-c2ccccc2)c(-c2ccccc2)o1)[O][Sn]([c]1ccccc1)([c]1ccccc1)[c]1ccccc1 [Ph3SnL1, (3-(4,5-Diphenyloxazol-2-yl)propanoato)triphenyltin(IV)]
- IC50 [1]: 237 ± 12 nM
- IC50 [2]: 146 ± 28 nM
- IC50 [3]: 2170 ± 530 nM
- IC50 [4]: 556 ± 38 nM
- IC50 [5]: 465 ± 46 nM
- times more powerful antiproliferative activity than cisplatin in MCF-7 cells ([6]; CV assay IC50 values): up to 70 times
- IC50 [6]: 218 ± 25 nM
- intracellular metal (tin / platinum) uptake (MCF-7 cells [7]): two-fold lower concentration of tin in MCF-7 cells in comparison to platinum
- mode of cell death (MCF-7 cells [8]): induces caspase-independent apoptosis
- caspase activation (apostat) (MCF-7 cells [8]; 48 h, IC50 concentration): did not induce the activation of caspases
- autophagy (AO) (MCF-7 cells [9]): autophagy process is not triggered

SMILES: N.N.[Cl][Pt][Cl] [cisplatin, reference compound]
- IC50 [1]: 14200 ± 730 nM
- IC50 [2]: 3470 ± 460 nM
- IC50 [3]: 8810 ± 510 nM
- IC50 [4]: 13000 ± 450 nM
- IC50 [5]: 16000 ± 950 nM
- IC50 [6]: 15800 ± 550 nM
- intracellular metal (tin / platinum) uptake (MCF-7 cells [7]): approximately twofold higher platinum concentration in MCF-7 cells compared to tin
- autophagy (AO) (MCF-7 cells [9]): induces an autophagic response
